Values after ≈ are worked out from the molar mass of the structure shown. Where a name gives a salt, the structure may show the parent alone.
Tests used:
Type in all cases: physicochemical
[1] = Equilibrium solubility in SGF, H2O, FaSSIF and FeSSIF, slurry at 37° C. for 24 hrs; details: for Solubility / pH of supernatant / Form of residual solid (XRPD): 37° C., 24 hrs
Method: About 10-50 mg of each sample was weighed into 1.0 mL of each medium followed by slurry at 37° C. for 24 hrs. The samples were centrifuged and filtered using 0.45 μm PTFE filter. The solids were tested by XRPD and the supernatants were tested by HPLC and pH.

[2] = Hygroscopicity by DVS isotherm at 25° C. between 0% RH and 95% RH, XRPD after DVS; details: for Water uptake (DVS): 25° C./80% RH; for Form change after DVS test (XRPD): after DVS at 25° C., 0% RH-95% RH
Method: DVS data was measured via a SMS (Surface Measurement Systems) DVS Intrinsic. The relative humidity at 25° C. was calibrated against the deliquescence point of LiCl, Mg(NO3)2 and KCl.

[3] = Thermodynamic stability compared with the amorphous freebase (TGA); details: compared with amorphous freebase of Compound A
Method: The TGA curve of the amorphous freebase of Compound A indicated a substantial and gradual weight loss starting at 30° C. and continuing to 150° C. with a total of about 17% loss.
TGA data were collected using a TA Q5000/Discovery 5500 TGA from TA Instruments. DSC was performed using a TA Q2000/Discovery 2500 DSC from TA Instruments.

[4] = Solid-state stability of the forms under storage (HPLC purity, XRPD form); details: for Form change on storage: all tested stability conditions
Method: It only slightly degraded at 60° C. after 2 weeks and at 80° C. after 3 days.

[5] = Initial, for the 25° C./60% RH, 40° C./75% RH and 60° C. series

Row | Compound | Solubility ([1]; FaSSIF) [µg/mL] | pH of supernatant ([1]; FaSSIF) | Form of residual solid (XRPD) ([1]; FeSSIF) | Solubility ([1]; FeSSIF) [µg/mL] | pH of supernatant ([1]; FeSSIF) | Form of residual solid (XRPD) ([1]; H2O) | Solubility ([1]; H2O) [µg/mL] | pH of supernatant ([1]; H2O) | Form of residual solid (XRPD) ([1]; SGF) | Solubility ([1]; SGF) [µg/mL] | pH of supernatant ([1]; SGF) | Form change after DVS test (XRPD) [2] | Thermodynamic stability [3] | Purity (area %) ([4]; 25° C./60% RH, 2 week) | Purity/Initial (%) ([4]; 25° C./60% RH, 2 week) | Purity (area %) ([4]; 25° C./60% RH, 4 week) | Purity/Initial (%) ([4]; 25° C./60% RH, 4 week) | Purity (area %) ([4]; 40° C./75% RH, 2 week) | Purity/Initial (%) ([4]; 40° C./75% RH, 2 week) | Purity (area %) ([4]; 40° C./75% RH, 4 week) | further results
1 | C=CCn1c(=O)c2cnc(Nc3ccc(N4CCN(C)CC4)cc3)nc2n1-c1ccc2c(n1)[C@@](O)(CC)CC2 [Adipate salt Form A] | 30800 | 4.8 | Adipate Salt Form A | 5600 | 4.8 | Adipate Salt Form A | 25500 | 4.7 | Adipate Salt Form A | 34100 | 4.4 | No form change | more thermodynamically stable than the amorphous freebase | 98.85 | 100.1 | 98.91 | 100.2 | 98.82 | 100.1 | 98.85 | Solubility comparison ([1]; SGF, H2O, FaSSIF, FeSSIF): higher solubility than freebase Form E of Compound A; Water uptake (DVS) [2]: 2.2%; Solid state stability ([4]; 4 weeks at 25° C./60% RH and 40° C./75% RH, 2 weeks at 60° C., 3 days at 80° C.): stable; Purity/Initial (%) ([4]; 40° C./75% RH, 4 week): 100.1%; Purity (area %) ([4]; 60° C., 2 week): 98.25 area %; Purity/Initial (%) ([4]; 60° C., 2 week): 99.5%; Purity (area %) ([4]; 60° C., 4 week): 97.80 area %; Purity/Initial (%) ([4]; 60° C., 4 week): 99.1%; Purity (area %) ([4]; 80° C., 1 day): 99.02 area %; Purity/Initial (%) ([4]; 80° C., 1 day): 100.0%; Purity (area %) ([4]; 80° C., 3 day): 98.77 area %; Purity/Initial (%) ([4]; 80° C., 3 day): 99.7%; Purity (area %) ([4]; 80° C., 7 day): 98.44 area %; Purity/Initial (%) ([4]; 80° C., 7 day): 99.4%; Purity (area %) [4, 5]: 98.72 area %; Purity (area %) ([4]; Initial, for the 80° C. series): 99.03 area %; Degradation ([4]; after 4 weeks at 60° C.): 0.9%; Degradation ([4]; after 7 days at 80° C.): 0.6%; Form change on storage [4]: no form change
2 | C=CCn1c(=O)c2cnc(Nc3ccc(N4CCN(C)CC4)cc3)nc2n1-c1ccc2c(n1)[C@@](O)(CC)CC2 [Freebase Form E] | 1400 (≈ 2.66 mM) | 6.8 | Amorphous | 2600 (≈ 4.94 mM) | 5.4 | Freebase Form E | 99 (≈ 0.188 mM) | 8.4 | Freebase Form E | 9000 (≈ 17.1 mM) | 6.6 | No form change | more thermodynamically stable than the amorphous freebase | 99.37 | 100.0 | 99.39 | 100.0 | 99.45 | 100.1 | 99.45 | Form of residual solid (XRPD) ([1]; FaSSIF): Freebase Form E; Water uptake (DVS) ([2]; listed as freebase Form E of Compound A): 0.6%; Solid state stability ([4]; 4 weeks at 25° C./60% RH, 40° C./75% RH and 60° C., 7 days at 80° C.): stable; Purity/Initial (%) ([4]; 40° C./75% RH, 4 week): 100.1%; Purity (area %) ([4]; 60° C., 2 week): 99.35 area %; Purity/Initial (%) ([4]; 60° C., 2 week): 100.0%; Purity (area %) ([4]; 60° C., 4 week): 99.16 area %; Purity/Initial (%) ([4]; 60° C., 4 week): 99.8%; Purity (area %) ([4]; 80° C., 1 day): 99.48 area %; Purity/Initial (%) ([4]; 80° C., 1 day): 100.0%; Purity (area %) ([4]; 80° C., 3 day): 99.31 area %; Purity/Initial (%) ([4]; 80° C., 3 day): 99.9%; Purity (area %) ([4]; 80° C., 7 day): 99.12 area %; Purity/Initial (%) ([4]; 80° C., 7 day): 99.7%; Purity (area %) [4, 5]: 99.35 area %; Purity (area %) ([4]; Initial, for the 80° C. series): 99.44 area %; Form change on storage [4]: no form change
3 | C=CCn1c(=O)c2cnc(Nc3ccc(N4CCN(C)CC4)cc3)nc2n1-c1ccc2c(n1)[C@@](O)(CC)CC2 [freebase Form J] | – | – | – | – | – | – | – | – | – | – | – | – | more thermodynamically stable than the amorphous freebase | – | – | – | – | – | – | – | –
